In brackets after ≈: the same amount, converted by molar mass. Non-standard residues stand in square brackets, D forms with d. Residues, ends and D or L forms follow the SMILES beside them. *: point of attachment. Phe(4-NH2) = Nc1ccc(C[C@H](N)C(=O)O)cc1; 1Nal = N[C@@H](Cc1cccc2ccccc12)C(=O)O; Sta = CC(C)C[C@H](N)[C@@H](O)CC(=O)O; Isovaleryl = CC(C)CC(=O)*
Key:
HIV-1 protease = biological target: T1, HIV-1 protease (Human immunodeficiency virus type 1 group M subtype B, UniProt P04585); test: HIV-1 protease inhibition assay (gag precursor maturation, Western blot); type: biochemical
T1 construct: a gene encoding the mature HIV-1 protease of 99 amino acids; last 58 codons of bovine growth hormone, fused behind the first 144 amino acids of reverse transcriptase in the expressed precursor (C); made in house; host or cells: Escherichia coli K12 L507/pHP10D (NRRL B-18560), crude lysate
Experimental: A 100 μl control reaction was established containing 10 to 20 μl of crude protease, about 2 μl of the gag supernatant and final concentrations of 50 mM MES Buffer (pH 5.5), 1 mM DTT and 25 mM NaCl. Inhibition assays were performed by pre-incubating the crude protease with an inhibitory compound at room temperature for about 30 minutes before adding the gag supernatant to the reaction. Both the control and the experimental reactions were incubated from three to sixteen hours at 37° C. The reactions were then electrophoresed and blotted onto nitrocellulose filters. Monoclonal antibodies which recognize epitopes on p24 and p17 viral proteins were contacted with the filter then visualized using standard biotinylation or radionuclear techniques. Compounds which prevented the maturation of the gag polypeptide into mature viral proteins p24 and p17 were then ranked according to their HIV-1 protease inhibitory activity.
About 10 to 20 μl of the crude protease lysate was mixed with about 2 μl of the gag supernatant. The mixture was then brought to a total volume of 100 μl by the addition of distilled water, MES buffer (2-[N-Morpholino]ethanesulfonic acid) (pH 5.5 to a total concentration of 50 mM), DTT (dithiolthreitol) (to a total concentration of 1 mM) and NaCl (to a total concentration of 25 mM). This reaction mixture was mixed gently then incubated from 3 hours to overnight at 37° C.
Next, about 25 μl of the reaction was mixed with loading buffer and subjected to polyacrylamide gel electrophoresis on a 12.5% Laemmli gel under reducing conditions. The proteins were transferred onto a nitrocellulose filter using standard "Western Blot" electrophoresis at 500 mAmps for 35 minutes at room temperature. The filter was air-dried, then non-specific immunoreaction was blocked by washing the filter for 30 minutes at 4° C. in a solution of 3% non-fat dry milk powder in phosphate buffered saline (PBS).
Monoclonal antibodies against p17 and/or p24 (available from DuPont, Wilmington, Del.) were added to about 40 ml of the 3% milk/PBS solution to a final concentration of 2 μg/ml. […] The filter then was removed and washed 5 times with PBS, then the maturation of the gag gene was determined by reaction with I^125 -labeled protein A or by reaction with biotinylated anti-mouse IgG antibodies (Vecta Stain®). […]
Following the procedure, it is simple to determine the activity of the HIV-1 protease encoded on plasmid pHP10D and produced in E. coli cells. When the protease is fully active, the gag protein, encoded by plasmid pHGAG and produced in E. coli, is cleaved from the precursor gag form into mature p24 and p17 proteins, which are readily measured by their presence relative to the precursor protein. […]

MLV = MLV XC Plaque Reduction Assay - Virus Yield; type: cell-based, Murine Leukemia Virus
Experimental: (§1) About 3 to 5×10^3 SC-1 cells (available from the American Type Culture Collection, Rockville, Md. under the accession number ATCC CRL-1404) per well of a 96-well microtiter plate were seeded in minimal essential medium supplemented with 5% fetal bovine serum, penicillin (150 U/ml), Streptomycin (150 μg/ml) and polybrene (2 μg/ml), then infected with Mo-MuLV (Multiplicity of Infection=10 PFU/cell) the next day. The virus was allowed to adsorb to the cells for 1 hour, then medium containing serial dilutions of P-7, P-9 or medium alone was added to the cells. Pepstatin A ([…]-Val-Val-Statine-Ala-Statine) and AZT (3'-Azido-3'-deoxythymidine) were also added as controls. After incubation for 5 days (when cells were confluent) the SC-1 cells were UV irradiated for 10 seconds and 5 to 8×10^4 XC cells (ATCC CCL-165) per well were added. Generally, about two additional days of incubation were required to obtain full virus-induced cytopathic effect.
The assay described above was also preferred to determine the virus yield. In this experiment, the supernatents were removed from the SC-1 cells four days after infection and tested for MLV titers, using the XC-plaque assay as previously described.

Mo-MuLV = test: Moloney Murine Leukemia Virus Assay, CPE inhibition in SC-1/XC cells; type: cell-based; parameters: key: 4+(>90%); 3+(>60%); 2+(>40%); 1+(>20%); -(Negative)
Experimental: as §1

CEM cells = type: cell-based
Experimental: (§2) Quantitative evaluation of the viral inhibition were performed on the T-cell lymphoblastoid cell lines MT-2 (Harada et al., 1985, Science 229:563-566) and CEM (Nara and Fischinger, 1988, Nature 332:469-470). The cells were infected with the HTLV-IIIB strain of HIV-1 from the supernatant fluid of infected human T-lymphocyte cell line H9 (Popovic, M. et al., 1984, Science 224:497-500). Each of these three cell lines are publicly available from the National Institutes of Health (NIH) AIDS Research and Reference Reagent Program. The H9/HTLC-IIIB cell line is available under catalogue number 231, while CEM cell line is available under catalogue number 117 and the MT-2 cell line is available under the catalogue number 237. MT-2 and CEM cells were grown in RPMI 1640 medium supplemented with 10% (v/v) fetal calf serum, 100 U/ml penicillin, 100 μg/ml streptomycin and 25 mM HEPEs buffer. H9 cells were grown in the same medium except 20% fetal calf serum was used. The peptides were diluted in the medium used for MT-2 and CEM cells. Cell cultures were maintained in disposable tissue culture labware at 37° C. in a humidified atmosphere of 5% CO2 in air.
(§3) The inhibitors were dissolved in DMSO at 40 mg/ml or sterile water at 2 mg/ml, then dilutions were made in medium. The dilutions were added to micro-titer plates in 100 μl/well aliquots so that the high drug concentration for each screen was 100 μg/ml after the addition of cells to the well.
(§4) Susceptible MT-2 and CEM cells were grown and the cell population determined by a trypan blue viable cell count. The desired total number of cells were placed in a sterile, disposable 50 ml conical centrifuge tube and virus was added to give an MOI (Multiplicity of Infection) of 0.03 TCID50 /cell (Tissue Culture Infectious Dose) on MT-2 cells and approximately 0.12 TCID50 /cell on CEM cells. Fresh medium was added to adjust the cell density to 1×10^5 cells/ml, then the virus-cell suspension was incubated at 37° C. for 1 to 2 hours until plating. Uninfected controls cell were prepared in the same manner but without the addition of virus. Infected and uninfected cells were added to plates in 100 μl/well aliquots to give a starting cell number of 1×10^4 cells/well. The plates were incubated for seven days in a humidified atmosphere of 5% CO2 in air.
Reagents for colorimetric evaluation of cell viability were prepared by mixing the tetrazolium reagent, XTT, and phenazine methosulfate (PMS) to final concentrations of 200 μg/ml and 0.02 mM, respectively. Fifty microliters of the XTT-PMS solution was added to each well of the microtiter plates, then the plates were incubated in the CO2 incubator for another four hours. The lids were removed from the plates and replaced with adhesive plate sealers. The plates were read with the sealers in place in a Vmax Plate Reader® at 450 nm and 650 nm. The cytopathic effect (CPE) and percentage of cell viability were then calculated.
The activity and cytotoxicity of several other peptides were also assayed in CEM cells using the same procedure as described above. These assays also included toxicity and activity levels of both 25% and 50%.

MT-2 cells = type: cell-based
Experimental: as §2, §3, §4
Reagents for colorimetric evaluation of cell viability were prepared by mixing the tetrazolium reagent, XTT, and phenazine methosulfate (PMS) to final concentrations of 200 μg/ml and 0.02 mM, respectively. […] The plates were read with the sealers in place in a Vmax Plate Reader® at 450 nm and 650 nm. The cytopathic effect (CPE) and percentage of cell viability were then calculated.

CC(=O)N[C@H](C(=O)N[C@@H](CC(C)C)[C@@H](O)CC(=O)N[C@@H](CC(C)C)C(=O)N[C@@H](Cc1ccccc1)C(N)=O)C(C)C [Ac-Val-Statine-Leu-Phe--NH2] (Ac-V[Sta]LF-NH2)
Inhibitory activity against the HIV protease (in words) (HIV-1 protease): inactive

CC(C)CC(=O)N[C@H](C(=O)N[C@H](C(=O)N[C@@H](CC(C)C)[C@@H](O)CC(=O)N[C@@H](C)C(=O)N[C@@H](CC(C)C)[C@@H](O)CC(=O)O)C(C)C)C(C)C [Pepstatin A, Isovaline-Val-Val-Statine-Ala-Statine] (Isovaleryl-VV[Sta]A[Sta]-OH)
% Inhibition (virus yield) (MLV; 25 μg/ml): 52% | Yield (MLV; 25 μg/ml): 9.0 × 10^4 PFU/ML | % Inhibition (virus yield) (MLV; 50 μg/ml): 94% | Yield (MLV; 50 μg/ml, supernatants four days after infection): 1.2 × 10^4 PFU/ML | CPE inhibition score (Mo-MuLV; 1.56 μg/ml): - | CPE inhibition score (Mo-MuLV; 3.12 μg/ml): - | CPE inhibition score (Mo-MuLV; 6.25 μg/ml): - | CPE inhibition score (Mo-MuLV; 12.5 μg/ml): - | CPE inhibition score (Mo-MuLV; 25 μg/ml): - | CPE inhibition score (Mo-MuLV; 50 μg/ml): -

CC(=O)N[C@@H](Cc1ccccc1)C(=O)N1CCC[C@H]1C(=O)N[C@@H](Cc1ccccc1)C(=O)N[C@H](C(=O)N[C@@H](CC(C)C)[C@@H](O)CC(=O)N[C@@H](CC(C)C)C(=O)N[C@@H](Cc1ccccc1)C(N)=O)C(C)C [P-10, Ac Phe Pro Phe Val Statine Leu Phe NH2] (Ac-FPFV[Sta]LF-NH2)
IC25 (Table V) (CEM cells): 49 µg/mL (≈ 50.7 µM) | TC50 (concentration that reduced cell viability by 50%) (CEM cells): 55 µg/mL (≈ 56.9 µM)

CC(=O)N[C@@H](Cc1ccc(O)cc1)C(=O)N1CCC[C@H]1C(=O)N[C@@H](Cc1ccccc1)C(=O)N[C@H](C(=O)N[C@@H](CC(C)C)[C@@H](O)CC(=O)N[C@@H](CC(C)C)C(=O)N[C@@H](Cc1ccccc1)C(N)=O)C(C)C [P-5, Ac Tyr Pro Phe Val Statine Leu Phe NH2] (Ac-YPFV[Sta]LF-NH2)
IC25 (Table V) (CEM cells): > 100 µg/mL | TC50 (concentration that reduced cell viability by 50%) (CEM cells): > 100 µg/mL

CC(C)C[C@H](NC(=O)C[C@H](O)[C@H](CC(C)C)NC(=O)[C@@H](NC(=O)[C@H](Cc1ccccc1)NC(=O)[C@@H]1CCCN1C(=O)[C@@H](N)Cc1c[nH]cn1)C(C)C)C(=O)N[C@@H](Cc1ccccc1)C(=O)N[C@@H](Cc1ccc(N)cc1)C(N)=O [P-15, H-His Pro Phe Val Statine Leu Phe paF NH2] (H-HPFV[Sta]LF[Phe(4-NH2)]-NH2)
MTC50 (minimum cytotoxic drug concentration that reduces cell viability to 50%) (CEM cells): > 100 µg/mL | MTC50 (minimum cytotoxic drug concentration that reduces cell viability to 50%) (MT-2 cells): > 100 µg/mL

CC(=O)N[C@@H](Cc1cccc2ccccc12)C(=O)N1CCC[C@H]1C(=O)N[C@@H](Cc1ccccc1)C(=O)N[C@H](C(=O)N[C@@H](CC(C)C)[C@@H](O)CC(=O)N[C@@H](CC(C)C)C(=O)N[C@@H](Cc1ccccc1)C(N)=O)C(C)C [P-7, Ac NA Pro Phe Val Statine Leu Phe NH2] (Ac-[1Nal]PFV[Sta]LF-NH2)
IC25 (Table V) (CEM cells): > 10 µg/mL | MTC50 (minimum cytotoxic drug concentration that reduces cell viability to 50%) (CEM cells): 21 µg/mL | TC50 (concentration that reduced cell viability by 50%) (CEM cells): > 10 µg/mL | MTC50 (minimum cytotoxic drug concentration that reduces cell viability to 50%) (MT-2 cells): 24.4 µg/mL

H-Pro His Pro Phe His AVA Ile Phe NH2 [P-25]
Relative Inhibition of HIV-1 Protease Activity (10^-4 M) (HIV-1 protease; peptide concentration added 10^-4 M): - | Relative Inhibition of HIV-1 Protease Activity (10^-5 M) (HIV-1 protease; peptide concentration added 10^-5 M): - | Relative Inhibition of HIV-1 Protease Activity (10^-6 M) (HIV-1 protease; peptide concentration added 10^-6 M): -

CC(=O)N[C@@H](Cc1c[nH]c2ccccc12)C(=O)N1CCC[C@H]1C(=O)N[C@@H](Cc1ccccc1)C(=O)N[C@H](C(=O)N[C@@H](CC(C)C)[C@@H](O)CC(=O)N[C@@H](CC(C)C)C(=O)N[C@@H](Cc1ccccc1)C(N)=O)C(C)C [P-8, Ac Trp Pro Phe Val Statine Leu Phe NH2] (Ac-WPFV[Sta]LF-NH2)
IC25 (Table V) (CEM cells): 49 µg/mL (≈ 48.7 µM) | TC50 (concentration that reduced cell viability by 50%) (CEM cells): 66 µg/mL (≈ 65.6 µM)

COc1ccc(C[C@H](NC(C)=O)C(=O)N2CCC[C@H]2C(=O)N[C@@H](Cc2ccccc2)C(=O)N[C@H](C(=O)N[C@@H](CC(C)C)[C@@H](O)CC(=O)N[C@@H](CC(C)C)C(=O)N[C@@H](Cc2ccccc2)C(N)=O)C(C)C)cc1 [P-9, Ac YOM Pro Phe Val Statine Leu Phe NH2] (Ac-Y(Me)PFV[Sta]LF-NH2)
IC25 (Table V) (CEM cells): > 100 µg/mL | TC50 (concentration that reduced cell viability by 50%) (CEM cells): > 100 µg/mL

Source: patent US6001810A, “Methods for treating retroviral infection” (Eli Lilly and Company, priority 1990, dated 1999)
